Laboratory results published in US20160330959A1, “FUNGICIDAL COMPOSITIONS OF PYRAZOLECARBOXYLIC ACID ALKOXYAMIDES” (BAYER CROPSCIENCE AKTIENGESELLSCHAFT, priority 2014, published 2016).

Columns and labels:
[1] = system: Septoria tritici; assay: in vivo preventive Septoria tritici test (wheat); details: preventive spray, evaluated 21 days after inoculation
Description: (§1) A synergistic effect of fungicides is always present when the fungicidal activity of the active compound combinations exceeds the total of the activities of the active compounds when applied individually. The expected activity for a given combination of two active compounds can be calculated as follows (cf. Colby, S. R., “Calculating Synergistic and Antagonistic Responses of Herbicide Combinations”, Weeds 1967, 15, 20-22): • If • X is the efficacy when active compound A is applied at an application rate of m ppm (or g/ha), • Y is the efficacy when active compound B is applied at an application rate of n ppm (or g/ha), • E is the efficacy when the active compounds A and B are applied at application rates of m and n ppm (or g/ha), respectively, and • then
(§2) The degree of efficacy, expressed in % is denoted. 0% means an efficacy which corresponds to that of the control while an efficacy of 100% means that no disease is observed.
To produce a suitable preparation of active compound, 1 part by weight of active compound or active compound combination is mixed with the stated amounts of solvent and emulsifier, and the concentrate is diluted with water to the desired concentration.
To test for preventive activity, young plants are sprayed with the preparation of active compound or active compound combination at the stated rate of application.
After the spray coating has been dried, the plants are sprayed with a spore suspension of Septoria tritici. The plants remain for 48 hours in an incubation cabinet at approximately 20° C. and a relative atmospheric humidity of approximately 100% and afterwards for 60 hours at approximately 15° C. in a translucent incubation cabinet at a relative atmospheric humidity of approximately 100%.
The plants are placed in the greenhouse at a temperature of approximately 15° C. and a relative atmospheric humidity of approximately 80%.
The test is evaluated 21 days after the inoculation. 0% means an efficacy which corresponds to that of the untreated control, while an efficacy of 100% means that no disease is observed.

[2] = system: Alternaria solani; assay: in vivo preventive test on Alternaria test (tomatoes); details: preventive spray, evaluated 3 days after inoculation
Description: as §1, §2
To produce a suitable preparation of active compound, 1 part by weight of active compound is mixed with the stated amounts of solvent and emulsifier, and the concentrate is diluted with water to the desired concentration.
To test for preventive activity, young plants are sprayed with the preparation of active compound at the stated rate of application. After the spray coating has dried on, the plants are inoculated with an aqueous spore suspension of Alternaria solani. The plants are then placed in an incubation cabinet at approximately 20° C. and a relative atmospheric humidity of 100%.
The test is evaluated 3 days after the inoculation. 0% means an efficacy which corresponds to that of the untreated control while an efficacy of 100% means that no disease is observed.

[3] = log P by HPLC on reversed phase columns (EEC directive 79/831 Annex V.A8); assay type: physicochemical; details: pH 2.7, pH 2,7, 0.1% formic acid in water / acetonitrile gradient
Description: Measurement of log P values was performed according EEC directive 79/831 Annex V.A8 by HPLC (High Performance Liquid Chromatography) on reversed phase columns with the following methods: ^[a] Measurement of LC-MS was done at pH 2,7 with 0.1% formic acid in water and with acetonitrile (contains 0.1% formic acid) as eluent with a linear gradient from 10% acetonitrile to 95% acetonitrile. Calibration was done with not branched alkan2-ones (with 3 to 16 carbon atoms) with known log P-values (measurement of log P values using retention times with linear interpolation between successive alkanones). lambda-maX-values were determined using UV-spectra from 200 nm to 400 nm and the peak values of the chromatographic signals.

SMILES: CC1(C)CN=C(c2cnc3ccccc3c2)c2cccc(F)c2O1 [Compound B1-1, 9-fluoro-2,2-dimethyl-5-(quinolin-3-yl)-2,3-dihydro-1,4-benzoxazepine]
- Efficacy in % found ([1]; 50 ppm a.i.): 25%

SMILES: Cc1nc2c(F)cccc2cc1Oc1cccc(F)c1C(C)(C)O [Compound B1-2, 2-{2-fluoro-6-[(8-fluoro-2-methylquinolin-3-yl)oxy]phenyl}propan-2-ol]
- Efficacy in % found ([1]; 50 ppm a.i.): 0%

SMILES: Cc1nc2c(F)c(F)ccc2cc1Oc1cccc(F)c1C(C)(C)O [Compound B1-3, 2-{2-[(7,8-difluoro-2-methylquinolin-3-yl)oxy]-6-fluorophenyl}propan-2-ol]
- Efficacy in % found ([1]; 50 ppm a.i.): 25%

SMILES: CC1(C)N=C(c2cnc3ccccc3c2)c2ccccc2C1(F)F [Compound B1-4]
- Efficacy in % found ([2]; 0.125 ppm a.i.): 0%
- Efficacy in % found ([2]; 0.25 ppm a.i.): 0%
- Efficacy in % found ([2]; 0.5 ppm a.i.): 15%
- Efficacy in % found ([1]; 60 ppm a.i.): 13%

SMILES: CON(C(=O)c1cn(C)nc1C(F)F)C(C)Cc1c(Cl)cc(Cl)cc1Cl (stereo not drawn) [Compound I-1, 3-(difluoromethyl)-N-methoxy-1-methyl-N-[1-(2,4,6-trichlorophenyl)propan-2-yl]-1H-pyrazole-4-carboxamide]
- Efficacy in % found ([2]; 0.125 ppm a.i.): 73%
- Efficacy in % found ([2]; 0.25 ppm a.i.): 85%
- Efficacy in % found ([1]; 5 ppm a.i.): 50%
- Efficacy in % found ([1]; 10 ppm a.i.): 63%

SMILES: CON(C(=O)c1c(C(F)F)nn(C)c1F)C(C)Cc1c(Cl)cc(Cl)cc1Cl (stereo not drawn) [Compound I-2, 3-(difluoromethyl)-5-fluoro-N-methoxy-1-methyl-N-[1-(2,4,6-trichlorophenyl)propan-2-yl]-1H-pyrazole-4-carboxamide]
- chromatographic logP [3]: 4.29
